{"source": "patent US9913831B2", "about": "“Methods and compositions for treating nephrogenic diabetes insipidus” (UNIVERSITY OF UTAH RESEARCH FOUNDATION, priority 2011, dated 2018)", "key": {"[1]": {"settings": "rats, lithium diet with clopidogrel vs lithium alone, ICPMS", "protocol": "Microhematocrit was determined by centrifuging free-flowing blood collected in heparinized capillary tubes in a microhematocrit centrifuge (Clay Adams, Parsippany, N.J., USA). Urinary excretion of AVP was quantified by a commercial ELISA kit (Enzo Life Sciences, Farmingdale, N.Y., USA). […] Based on serum and urine analysis, electrolyte-free clearance [CH20(e)] was computed using the formula CH20(e)=V((1−UNa+UK)/PNa), where V=urine volume, UNa and UK are urine Na and K, and PNa is plasma Na, respectively (Schrier 2006). Lithium levels in inner medullary tissue homogenates were assayed by Inductively Coupled Plasma-Mass Spectrometry (ICPMS) by Exova (Santa Fe Springs, Calif., USA), and were normalized to their respective protein contents."}, "Sprague-Dawley rats": {"tested_on": "Sprague-Dawley rats", "protocol": "(§1) Animal experiments: Male Sprague-Dawley rats were purchased from Charles River (Wilmington, Mass., USA), and Brattleboro mutant rats that lack AVP (HsdBlu:BRAT-Avpdi) were obtained from the Rat Resource & Research Center (RRRC), University of Missouri, Columbia, Mo., USA. Mice (B6D2 genetic background) were bred in-house. […] Lithium-added chow (40 mmol Li/kg chow) was custom prepared (MP Biomedicals, Aurora, Ohio, USA). Clopidogrel bisulfate was administered orally by powdering and dissolving Plavix® tablets (Bristol-Myers Squibb, New York, N.Y., USA) in drinking water. The concentration of the drug in the drinking water was adjusted daily based on the water consumption of the animals the previous day. The clopidogrel dose used in Sprague-Dawley rats (20 mg/kg bw/day) was the same as used by other investigators (de La Crux et al, 2003; Graciano et al, 2008). In mice, clopidogrel was administered at a dose of 80 mg/kg bw/day. […]\nMicrohematocrit was determined by centrifuging free-flowing blood collected in heparinized capillary tubes in a microhematocrit centrifuge (Clay Adams, Parsippany, N.J., USA). Urinary excretion of AVP was quantified by a commercial ELISA kit (Enzo Life Sciences, Farmingdale, N.Y., USA). […]"}, "Brattleboro mutant rats": {"tested_on": "Brattleboro mutant rats", "settings": "Brattleboro rats lacking AVP, clopidogrel 40 mg/kg bw/day in drinking water 2 weeks", "protocol": "as §1, with “(HsdBlu:BRAT-Avp^di)” for “(HsdBlu:BRAT-Avpdi)”, “day.” for “day. The clopidogrel dose used in Sprague-Dawley rats (20 mg/kg bw/day) was the same as used by other investigators (de La Crux et al, 2003; Graciano et al, 2008). In mice, clopidogrel was administered at a dose of 80 mg/kg bw/day.”\nBlood, urine and tissue analysis: Osmolalities of clear urine samples were measured by vapor pressure method (Wescor, Logan, Utah, USA). Microhematocrit was determined by centrifuging free-flowing blood collected in heparinized capillary tubes in a microhematocrit centrifuge (Clay Adams, Parsippany, N.J., USA). Urinary excretion of AVP was quantified by a commercial ELISA kit (Enzo Life Sciences, Farmingdale, N.Y., USA). Total nitrate/nitrite contents of urine samples were determined by a commercial kit (Cayman Chemical, Ann Arbor, Mich.).Na, Li and K levels in serum and/or urine were determined on EasyElectrolyte® (Medica Corp., Bedford, Mass., USA). […]"}, "rats": {"tested_on": "rats", "settings": "upto 4 weeks; cited from earlier work"}}, "data": [{"smiles": "COC(=O)[C@H](c1ccccc1Cl)N1CCc2sccc2C1", "note": "[clopidogrel]", "values": [{"measurement": "accumulation of lithium in the inner medulla", "setting": "[1]", "result": "no effect"}, {"measurement": "urinary excretion of AVP", "setting": "Sprague-Dawley rats; clopidogrel administration alone, rats", "result": "significantly increased"}, {"measurement": "urinary concentration", "setting": "Sprague-Dawley rats; normal rats, clopidogrel 20 mg/kg bw/day in drinking water 13 days", "result": "Increased"}, {"measurement": "urinary concentrating ability", "setting": "Brattleboro mutant rats", "result": "did not increase"}, {"measurement": "doses free from toxicity", "setting": "rats", "result": "≤ 165", "unit": "mg/kg bw/day"}]}]}
